# Measurements taken from US11358930B2, “Selective potassium channel agonists” (University of Pittsburgh—Of the Commonwealth System of …, priority 2018, dated 2022).
# “Also recorded” adds a separate entry of the source.
# How the values were obtained:
# Kv7.2/Kv7.3 = biological target: T1, Kv7.2/Kv7.3 (Homo sapiens, UniProt O43525+O43526); test: Automated electrophysiology IonWorks Barracuda (IWB) agonist assay in HEK293 cells, Kv7.2/Kv7.3; format: cell-based; conditions: for selectivity index SI = EC2x(Kv7.4/Kv7.5)/EC2x(Kv7.2/Kv7.3): higher SI = better selectivity for Kv7.2/Kv7.3; for EC2x at Kv7.2/Kv7.3 (agonist concentration that doubles the conductance at the voltage leading to 15% channel activation): HEK293 cells, IWB, 10-point concentration-response
# T1 construct: expressed in transfected cells; host or cells: HEK293
# Procedure: (§1) Biological evaluation of the new analogs, including RL-81 as a positive standard was performed in the Eli Lilly Open Innovation Drug Discovery (OIDD) program (now discontinued; see https://openinnovation.lilly.com/dd/login.jsp). Ion channel agonistic potency was determined in a high-throughput assay using the automated electrophysiology IonWorks® Barracuda™ (IWB) platform (Molecular Devices, LLC) in HEK293 cells. The resulting 10-point concentration-response curves provide a measure of compound efficacy by determining the agonist concentration that doubles the conductance at the voltage leading to 15% channel activation (EC2x).
# Since the primary interest was in optimizing central (Kv7.2/Kv7.3) over peripheral Kv7.4/Kv7.5) tissue activities, a selectivity index (SI) was calculated as the inverse ratio of the EC2x values for these two channel types: SI=EC2x(Kv7.4/Kv7.5)/EC2×(Kv7.2/Kv7.3) The higher the SI ratio, the better the selectivity of the agent for the Kv7.2/Kv7.3 channels.
# Kv7.4 = biological target: T2, Kv7.4 (Homo sapiens, UniProt P56696); test: Automated electrophysiology IonWorks Barracuda (IWB) agonist assay in HEK293 cells, Kv7.4; format: cell-based
# T2 construct: expressed in transfected cells; host or cells: HEK293
# Procedure: as §1
# Kv7.3/Kv7.5 = biological target: T3, Kv7.3/Kv7.5 (Homo sapiens, UniProt O43525+Q9NR82); test: Automated electrophysiology IonWorks Barracuda (IWB) agonist assay in HEK293 cells, Kv7.3/Kv7.5; format: cell-based
# T3 construct: expressed in transfected cells; host or cells: HEK293
# Procedure: as §1
# Kv7.4/Kv7.5 = biological target: T4, Kv7.4/Kv7.5 (Homo sapiens, UniProt P56696+Q9NR82); test: Automated electrophysiology IonWorks Barracuda (IWB) agonist assay in HEK293 cells, Kv7.4/Kv7.5; format: cell-based
# T4 construct: expressed in transfected cells; host or cells: HEK293
# Procedure: as §1
# all tested Kv7 channels = test: Automated electrophysiology IonWorks Barracuda (IWB) agonist assay in HEK293 cells, all tested Kv7 channels; format: cell-based; conditions: for activity at all Kv7 channel types (in words): HEK293 cells, IWB
# Procedure: as §1
# KCNQ2/3 = KCNQ2/3 (Homo sapiens, UniProt O43525+O43526); conditions: read-out: EC50 (KCNQ2/3 activator); cited from earlier work
structure (smiles),measurement,setting,value
"Nc1c(NC(=O)OC2CC2)cc(F)c(NCc2ncc(C(F)(F)F)cc2F)c1F [RL-01, Cyclopropyl (2-amino-3,5-difluoro-4-(((3-fluoro-5-(trifluoromethyl)pyridin-2-yl)methyl)amino)phenyl)carbamate]",selectivity / potency of 2-pyridyl analogs (in words),Kv7.2/Kv7.3,either low selectivity or low potency
"CCOC(=O)Nc1ccc(NCc2cccc(S(F)(F)(F)(F)F)c2)c(F)c1N [RL-02, Ethyl (2-amino-3-fluoro-4-((3-(pentafluoro-λ^6-sulfanyl)benzyl)amino)phenyl)carbamate]",selectivity index SI = EC2x(Kv7.4/Kv7.5)/EC2x(Kv7.2/Kv7.3),Kv7.2/Kv7.3,1.8
"Nc1c(F)c(NCc2ncc(C(F)(F)F)cc2F)cc(F)c1NC(=O)OC1CC1 [RL-12, Cyclopropyl (2-amino-3,6-difluoro-4-(((3-fluoro-5-(trifluoromethyl)pyridin-2-yl)methyl)amino)phenyl)carbamate]",agonist activity at Kv7.4 (in words),Kv7.4,lacked activity
same,agonist activity at Kv7.3/Kv7.5 (in words),Kv7.3/Kv7.5,lacked activity
same,agonist activity at Kv7.4/Kv7.5 (in words),Kv7.4/Kv7.5,lacked activity
same,selectivity index SI = EC2x(Kv7.4/Kv7.5)/EC2x(Kv7.2/Kv7.3),Kv7.2/Kv7.3,> 10
same,agonist activity at other channels (in words),all tested Kv7 channels; channels other than Kv7.2/Kv7.3,no detectable agonist activity
"CCOC(=O)Nc1ccc(NCc2ccc(C(F)(F)F)cc2F)c(F)c1N [RL-18, Ethyl (2-amino-3-fluoro-4-((2-fluoro-4-(trifluoromethyl)benzyl)amino)phenyl)carbamate]",EC2x at Kv7.2/Kv7.3 (agonist concentration that doubles the conductance at the voltage leading to 15% channel activation),Kv7.2/Kv7.3,0.18 ± 0.11 µM
same,selectivity index SI = EC2x(Kv7.4/Kv7.5)/EC2x(Kv7.2/Kv7.3),Kv7.2/Kv7.3,1.7
"CCOC(=O)Nc1ccc(NCc2ccc(C(F)(F)F)c(C#N)n2)c(F)c1N [RL-23, Ethyl (2-amino-4-(((6-cyano-5-(trifluoromethyl)pyridin-2-yl)methyl)amino)-3-fluorophenyl)carbamate]",selectivity / potency of 2-pyridyl analogs (in words),Kv7.2/Kv7.3,either low selectivity or low potency
"CCOC(=O)Nc1ccc(NCc2ccc(C(F)(F)F)nc2)c(F)c1N [RL-24, Ethyl (2-amino-3-fluoro-4-(((6-(trifluoromethyl)pyridin-3-yl)methyl)amino)phenyl)carbamate]",potency compared to 2-pyridyl isomers RL-31 and RL-68 (in words),Kv7.2/Kv7.3,essentially equivalent potency
same,selectivity compared to 2-pyridyl isomers RL-31 and RL-68 (in words),Kv7.2/Kv7.3,slightly increased selectivity
"CCOC(=O)Nc1ccc(NCc2ccc(C(F)(F)F)cn2)c(F)c1N [RL-31, Ethyl (2-amino-3-fluoro-4-(((5-(trifluoromethyl)pyridin-2-yl)methyl)amino)phenyl)carbamate]",selectivity / potency of 2-pyridyl analogs (in words),Kv7.2/Kv7.3,either low selectivity or low potency
"CC(C)OC(=O)Nc1ccc(NCc2ccc(C(F)(F)F)cc2)c(F)c1N [RL-32, Isopropyl (2-amino-3-fluoro-4-((4-(trifluoromethyl)benzyl)amino)phenyl)carbamate]",EC2x at Kv7.4/Kv7.5,Kv7.4/Kv7.5,4.98 µM
same,selectivity index SI = EC2x(Kv7.4/Kv7.5)/EC2x(Kv7.2/Kv7.3),Kv7.2/Kv7.3,31
same,potency at Kv7.2/Kv7.3 compared with RL-81 (more potent),Kv7.2/Kv7.3; relative to RL-81,slightly increased the potency
same,SI improvement over RL-81,Kv7.2/Kv7.3; versus SI=0.3 of RL-81,100 ×
"Nc1c(NC(=O)OC2CC2)cc(F)c(NCc2ccc(C(F)(F)F)cc2F)c1F [RL-36, Cyclopropyl (2-amino-3,5-difluoro-4-((2-fluoro-4-(trifluoromethyl)benzyl)amino)phenyl)carbamate]",agonist activity at Kv7.4 (in words),Kv7.4,lacked agonist activity
same,agonist activity at Kv7.3/Kv7.5 (in words),Kv7.3/Kv7.5,lacked agonist activity
same,agonist activity at Kv7.4/Kv7.5 (in words),Kv7.4/Kv7.5,lacked agonist activity
same,selectivity index SI = EC2x(Kv7.4/Kv7.5)/EC2x(Kv7.2/Kv7.3),Kv7.2/Kv7.3,> 10
"Nc1c(F)c(NCc2ccc(C(F)(F)F)cc2F)cc(F)c1NC(=O)OC1CC1 [RL-46, Cyclopropyl (2-amino-3,6-difluoro-4-((2-fluoro-4-(trifluoromethyl)benzyl)amino)phenyl)carbamate]",selectivity index SI = EC2x(Kv7.4/Kv7.5)/EC2x(Kv7.2/Kv7.3),Kv7.2/Kv7.3,> 7
same,activity at all Kv7 channel types (in words),all tested Kv7 channels,moderately active
"Nc1c(F)c(NCc2ccc(C(F)(F)F)cc2F)c(F)c(F)c1NC(=O)OC1CC1 [RL-50, Cyclopropyl (2-amino-3,5,6-trifluoro-4-((2-fluoro-4-(trifluoromethyl)benzyl)amino)phenyl)carbamate]",activity at all Kv7 channel types (in words),all tested Kv7 channels,lost all activity; also recorded: inactive
"Nc1c(NC(=O)OC2CC2)ccc(NCc2ccc(C(F)(F)F)cc2)c1F [RL-56, Cyclopropyl (2-amino-3-fluoro-4-((4-(trifluoromethyl)benzyl)amino)phenyl)carbamate]",EC2x at Kv7.2/Kv7.3 (agonist concentration that doubles the conductance at the voltage leading to 15% channel activation),Kv7.2/Kv7.3,0.11 ± 0.02 µM
same,selectivity index SI = EC2x(Kv7.4/Kv7.5)/EC2x(Kv7.2/Kv7.3),Kv7.2/Kv7.3,2.5
same,potency at Kv7.2/Kv7.3 compared with RL-81 (more potent),Kv7.2/Kv7.3; relative to RL-81,ca. 3
"Nc1c(NC(=O)OC2CC2)ccc(NCc2ccc(C(F)(F)F)nc2)c1F [RL-67, Cyclopropyl (2-amino-3-fluoro-4-(((6-(trifluoromethyl)pyridin-3-yl)methyl)amino)phenyl)carbamate]",potency compared to 2-pyridyl isomers RL-31 and RL-68 (in words),Kv7.2/Kv7.3,essentially equivalent potency
same,selectivity compared to 2-pyridyl isomers RL-31 and RL-68 (in words),Kv7.2/Kv7.3,slightly increased selectivity
"Nc1c(NC(=O)OC2CC2)ccc(NCc2ccc(C(F)(F)F)cn2)c1F [RL-68, Cyclopropyl (2-amino-3-fluoro-4-(((5-(trifluoromethyl)pyridin-2-yl)methyl)amino)phenyl)carbamate]",selectivity / potency of 2-pyridyl analogs (in words),Kv7.2/Kv7.3,either low selectivity or low potency
"CCOC(=O)Nc1cc(F)c(NCc2ccc(C(F)(F)F)cc2)cc1N [RL-72, Ethyl (2-amino-5-fluoro-4-((4-(trifluoromethyl)benzyl)amino)phenyl)carbamate]",EC2x at Kv7.4,Kv7.4,4.65 µM
same,EC2x at Kv7.3/Kv7.5,Kv7.3/Kv7.5,> 10 µM
same,EC2x at Kv7.4/Kv7.5,Kv7.4/Kv7.5,> 10 µM
same,EC2x at Kv7.2/Kv7.3 (agonist concentration that doubles the conductance at the voltage leading to 15% channel activation),Kv7.2/Kv7.3,1.26 µM
same,selectivity index SI = EC2x(Kv7.4/Kv7.5)/EC2x(Kv7.2/Kv7.3),Kv7.2/Kv7.3,> 7
same,reduction of potency (EC2x) at Kv7.2/Kv7.3 versus RL-81,Kv7.2/Kv7.3; relative to RL-81,5 fold
"CCOC(=O)Nc1ccc(NCc2cccc(C(F)(F)F)c2)c(F)c1N [RL-73, Ethyl (2-amino-3-fluoro-4-((3-(trifluoromethyl)benzyl)amino)phenyl)carbamate]",selectivity index SI = EC2x(Kv7.4/Kv7.5)/EC2x(Kv7.2/Kv7.3),Kv7.2/Kv7.3,4.7
same,potency at Kv7.2/Kv7.3 compared with RL-81 (more potent),Kv7.2/Kv7.3; relative to RL-81,twice as potent
"CCOC(=O)Nc1cc(C(F)(F)F)c(NCc2ccc(C(F)(F)F)cc2)c(F)c1N [RL-073, Ethyl (2-amino-3-fluoro-5-(trifluoromethyl)-4-((4-(trifluoromethyl)benzyl)amino)phenyl)carbamate]",activity at all Kv7 channel types (in words),all tested Kv7 channels,completely abrogated activity
"CCOC(=O)Nc1ccc(NCc2ccc(C(F)(F)F)cc2)c(F)c1N [RL-81, Ethyl (2-amino-3-fluoro-4-((4-(trifluoromethyl)benzyl)amino)phenyl)carbamate]",EC2x at Kv7.4,Kv7.4,0.10 µM
same,EC2x at Kv7.3/Kv7.5,Kv7.3/Kv7.5,0.29 µM
same,selectivity index SI = EC2x(Kv7.4/Kv7.5)/EC2x(Kv7.2/Kv7.3),Kv7.2/Kv7.3,0.3
same,EC50,KCNQ2/3,260 nM
same,"efficacy versus flupirtine (FP), times higher",all tested Kv7 channels; at all tested Kv7 channels,8-50 times
same,"efficacy versus retigabine (RG), in words",all tested Kv7 channels; at all tested Kv7 channels,comparable
"CCOC(=O)Nc1ccc(NCc2ccc(F)cc2)nc1N [flupirtine, reference compound]",selectivity index SI = EC2x(Kv7.4/Kv7.5)/EC2x(Kv7.2/Kv7.3),Kv7.2/Kv7.3,1.8
same,EC50,KCNQ2/3,2000 nM
CCOC(=O)Nc1ccc(NCc2ccc(F)cc2)cc1N [retigabine],EC50,KCNQ2/3,330 nM
